Series [1] concerns Amaranthus caudatus cotyledon/hypocotyl explants. Nature of the series: Amaranthus bioassay (betacyanin content). It is filed as in vivo, Amaranthus caudatus var. atropurpurea. The protocol:
Testing of Novel Compounds in Amaranthus bioassay. Standard Amaranthus bioassay was performed with several modifications. The seeds of Amaranthus caudatus var. atropurpurea were surface-sterilized in 10% N-chlorobenzene sulfonamide (w/v) for 10 min and washed 5 times in deionized water. They were placed in 14 cm Petri dishes containing paper tissues saturated with deionized water. After 72 hours of cultivation at 25° C. in darkness, the roots of the seedlings were cut off. The explants, consisting of two cotyledons and hypocotyls, were placed in 5 cm Petri dishes on two layers of filter paper soaked in 1 ml of incubation medium containing 10 μmol Na2HPO4—KH2PO4, pH 6.8, 5 μmol tyrosine and the cytokinin to be tested. There were 20 explants per dish. The procedure was carried out under a green safe light in a darkroom. After a 48 hours of incubation at 25° C. in darkness, betacyanin was extracted by freezing the explants in 4 ml 3.33 μM acetic acid. The concentration of betacyanin was determined by comparing the absorbance at 537 nm and 620 nm as follows: DA=A537nm−A620nm. From the obtained data, the concentration with highest activity was selected for each compound tested. Relative activity of the compound at this concentration was calculated (see Table 3 below). […] The values shown in Table 3 are means of five replicates and the entire test was repeated twice.
The cytokinins to be tested were dissolved in dimethylsulfoxide (DMSO) and the solution brought up to 10^−3 M with distilled water.

Series [2] has as its system human skin fibroblast line ASF-2. In words: Cell attachment of human skin fibroblasts. It is filed as cell-based. The conditions noted are these: six hours of treatment, 40 to 500 μM. As for the experimental part: A) Growth characteristics: • (1) Cell attachment frequency: to rule out immediate toxicity; • (2) Cell survival: to rule out delayed toxicity; • (3) Growth rates: to determine cell division stimulatory/inhibitory potential;
(§1) Experimental Procedures. A stock solution of 4 mM for 6-furfurylamino-8-aminopurine and 8 mM for other compounds were prepared by dissolving about […] per ml 1N HCl, followed by its appropriate dilution by the addition of Hank's buffer. The stock solution was filter sterilized, stored at 4° C., and was used for experiments by dilution it in the cell culture medium as required.
(§2) All cell culture experiments were performed on early and mid passage cultures (about 20 to 40% lifespan completed) of normal human skin fibroblast line, designated ASF-2. In order to check the effects of test compounds on senescent cells, late passage cells with more than 90% lifespan completed were used. ASF-2 cell line was established from a mammary skin biopsy obtained from a young, non-smoking and healthy […] at the time of breast reduction operation. Normal culture conditions of medium (DMEM) containing antibiotics, 10% foetal calf serum, and incubation at 37° C. with 95% humidity were used. The effects of the test compounds were determined using the following procedures.

The test system is the same in series [3]. In words: Short-term growth of human skin fibroblasts. The settings on record: for cellular growth: 200 to 500 μM. It is filed as cell-based. The protocol:
as §1, §2
Growth characteristics. Short-term growth experiments were performed using 24-well tissue culture plates (growth area 1.9 cm^2). Freshly prepared cell suspensions from mass cultures of ASF-2 cells maintained in our labs were used. About 10,000 cells were seeded into 6 sets of 24-well plates. The cells were allowed to attach and stabilize for 24 hr in normal culture medium to achieve various final concentrations (range 40 to 500 μM). Culture medium was changed with the addition of test chemicals twice a week. The numbers of cells were counted after different days of treatment in 2 wells from each concentration of the test chemical, by following the normal method of cell trypsinization and counting using a Coultercounter. The third well in each category was fixed by cold methanol and stained with Giemsa stain for permanent record and for photography. The experiment was carried on for until the cultures became fully confluent and no further growth was possible.

The test system is the same in series [4]. Nature of the series: Senescence-specific beta-galactosidase staining. Type of series: cell-based.
Description: B) Cellular parameters: • (4) Cellular morphology: to evaluate cytoplasmic and nuclear stability; • (5) Cytoskeleton organization: to evaluate the stability of the cytoskeleton; • (6) Appearance of senescence-specific β-galactosidase: to rule out pro-aging effects; • (7) Lysosomal staining (Neutral red); • (8) JC-1 Staining of Mitochondria: for evaluation of mitochondrial function; • (9) Rejuvenation studies: for evaluation of reversion effect from aged phenotype to young phenotype; and
as §2

The subject of series [5] is lysosomes of human skin fibroblasts. Nature of the series: Lysosomal staining (Neutral Red). Type of series: cell-based. The conditions noted are these: treated cells compared to the controls. As for the experimental part:
as §2
Lysosomal activity. Neutral Red is preferentially taken up into the lysosomes of the cell. Fibroblast cells are maintained in culture and exposed to test compounds over a range of concentrations. The cultures are visually examined after 72 hours, and the number of viable cells and/or the total cell protein content determined, after 72 hours exposure, by the Neutral Red Uptake method. Advantage of Neutral Red assay is that it detects only viable cells. Any material having a localized effect upon the lysosomes will, therefore, result in an artificially low (or possibly high) reflection of cell viability and cell number. […]

For `Nc1nc2c(NCc3ccco3)ncnc2[nH]1` [Compound 82, 6-furfurylamino-8-aminopurine], the “Activity (%)” value in series [1] (at concentration with highest activity, activity of kinetin set at 100%) is given as 147.45%. Further, the “Concentration with highest activity” value in series [1] (betacyanin content, 48 hours in darkness) is recorded as 10^−4 mol/l. In series [2], the “Percent of cells attached” value is recorded as “not affected to any significant extent”. In series [3] (80 μM vs untreated), the Cell growth result is recorded as “similar”. Also, the cellular growth result in series [3] is “significantly inhibited”; in series [3] (after 9 days), “almost a total inhibition”. Further, the “number of prematurely senescent cells (beta-galactosidase staining)” value in series [4] was “did not show any increase”. Further, the “lysosomes (Neutral Red staining)” value in series [5] is “larger and more numerous”.

Source of the values: patent US20130072506A1, “6,8-DISUBSTITUTED PURINE COMPOSITIONS” (priority 2011, published 2013).
